pIC50, pKi: −log10 of the molar value. Values after ≈ are worked out from the molar mass of the structure shown. Values joined by “and” are separate entries in the source; they are usually repeats but may differ in a detail not shown here. Equal entries are not always repeated. “Also recorded” adds a separate entry of the source. Where two headings read alike, the source gives them in different places.
Assays:
[1] = target: T1, Na^+-NQR (Vibrio cholerae serotype O1, UniProt Q9KPS2); assay: Na+-NQR activity (dNADH oxidation) in sub-bacterial V. cholerae vesicles; type: biochemical
T1 construct: being placed in its native membrane; endogenous in cells; sub-bacterial membrane vesicles made by French press

[2] = target: Na^+-NQR; conditions: cited from earlier work
[3] = tested on: primary Vascular Smooth Muscle cells; assay: Cell toxicity / proliferation assay, primary vascular smooth muscle cells; type: cell-based, human; conditions: for toxicity to primary cells (in words): primary Vascular Smooth Muscle cells
Method: (§1) Cell Toxicity Assay was performed as follows. HeLa, HEK293 and primary VSM cells were seeded at 5×10^3 cells/well in 96-well plates and incubated with Korormicin, PEG-2 or homoserine lactones in DMEM containing 1% fetal bovine serum (FBS; Invitrogen Corp.). After 48 hours, the number of living cells was determined by a colorimetric enzyme assay, based on a cytoplasmic enzyme activity present in viable cells.
Cells were seeded at 5×10^3 cells/well in 96-well plates and incubated with C. trachomatis in DMEM containing 1% fetal bovine serum (FBS; Invitrogen Corp.). After 48 hours, the number of living cells was determined by a colorimetric enzyme assay (CellTiter 96 Cell Proliferation Assay; Promega Corporation, Madison, WI) based on a cytoplasmic enzyme activity present in viable cells. (Cory et al. Use of an aqueous soluble tetrazolium/formazan assay for cell growth assays in culture. Cancer Commun. 1991; 3:207-212). The absorbance of a formazan product in tissue culture media was measured at 500 nm using a microplate reader.

[4] = tested on: Chlamydia trachomatis; assay: C. trachomatis infection of HeLa cells (chlamydial inclusions, immunocytochemistry); type: cell-based; conditions: for MCC2, Minimal Chlamydicidal Concentration: after 2 passages with treatment
Method: Chlamydia trachomatis (C. trachomatis) propagation and treatment were carried out as follows. C. trachomatis was propagated in HeLa cells. The titer of C. trachomatis was determined in cyclohexamide-treated HeLa cells, and concentrations used were expressed as inclusion forming units (IFU) per mL.
Assessment of the level of infection was determined as follows. HeLa cells were seeded on glass coverslips in 24-well plates at 3×10^4 cells/well and inoculated with C. trachomatis and then treated with antibiotic (or other compounds of interest). After 48 hours, the infected cells were fixed with 100% methanol and then incubated with anti-Chlamydia monoclonal antibody. Inclusion bodies were visualized by staining with FITC-conjugated secondary antibody and DAPI as counterstaining. The samples were examined by a fluorescence microscopy. Number of inclusions was calculated per 100 cells.
Assessment of antichlamydial activity of Korormicin (Scheme shown in FIG. 1) and PEG-2 (Scheme shown in FIG. 2) were performed as follows. Cells were infected with C. trachomatis and treated with different concentrations of antibiotic of choice. After 48 h of C. trachomatis was collected (P1) and used to infect fresh cells. Subsequent collections of C. trachomatis were used to obtain P2, P3, P4 and P5 stocks of C. trachomatis. Dilution of C. trachomatis used to infect cells after treatment with PEG-2 had to be minimized in order to visualize inclusions. Last passage collection of C. trachomatis (P5) of Korormicin treatment and all collected of passages of C. trachomatis treated with PEG-2 were used to establish infectivity of treated Chlamydia (Scheme shown in FIG. 3).
For MIC50 (Minimal Concentration of the antibiotic that inhibits formation of chlamydial inclusions on 50%) determination HeLa cells were grown in 24-well or 96 well plates overnight prior to chlamydial inoculation. Elementary bodies were applied to the cells in small volume of SPG (0.22 M sucrose, 8.6 mM Na2HPO4, 3.8 mM KH2PO4, 5 mM glutamic acid, 0.2 μm-filtered, pH 7.4) and after 2 hours of incubation unattached elementary bodies were removed and infected cells were treated with different concentration of antibiotics in Dulbecco's modified Eagle's medium (DMEM, Invitrogen) with 5% fetal bovine serum (FBS, Invitrogen) in the presence of cycloheximide (1.0 μg/ml). After 42 h inclusions were visualized by immunocytochemistry.
To determent chlamydicidal effect of Korormicin (Scheme 1) and PEG-2 (Scheme 2) Hela cells were infected with C. trachomatis and treated with different concentrations of antibiotics. After 48 h of C. trachomatis was collected (P1) and used to infect fresh cells. Subsequent collections of C. trachomatis were used to obtain P2, P3, P4 and P5 stocks of C. trachomatis. Dilution of C. trachomatis used to infect cells after treatment with PEG-2 had to be minimized in order to visualize inclusions. (See Scheme 2 below). Last passage collection of C. trachomatis (P5) of Korormicin treatment and all collected of passages of C. trachomatis treated with PEG-2 were used to establish infectivity of treated C. trachomatis. Minimal chlamydicidal concentration (MCC2) for Korormicin, PEG-2 and PEG-2S was calculated after 2 passages of infection with treatment and reflect inhibition of infection for more than 90%. In all experiments inclusions were visualized by immunocytochemistry.
Cells were seeded on glass coverslips in 24-well plates (2-4×10^4 cells/well) or on glass-bottom 96 well plates (10^4 cells/well), and after overnight inoculated with C. trachomatis. After 42 hours, the infected cells were fixed with 90% acetone (or 100% methanol in case of 96 well plates) and then incubated with anti-Chlamydia antibody (Thermo Fisher Scientific). Alexa Fluor 488-conjugated anti-rabbit IgG (Molecular Probes) was used as secondary antibody. DAPI staining solution (300 nM) was added to the coverslips to identify nuclei. […]

[5] = tested on: HeLa cell line; assay: Cell toxicity assay, HeLa cells; type: cell-based, human
Method: as §1

[6] = tested on: Lactococcus lactis; assay: Growth of free-living bacteria in liquid medium (OD600); conditions: 1.0 to 50 μM
[7] = tested on: HEK293 cells infected with C. trachomatis; assay: Intracellular pH in HEK293 cells infected with C. trachomatis; type: cell-based, human
Method: (§2) pHrodo™ Green AM and CoroNa Green Sodium Indicator (both Molecular Probes, Invitrogen) were used to measure intracellular pH (pHi) and intracellular sodium (Na^+i) concentration. HEK293 cells were seeded on 24 well plates and infected with C. trachomatis after overnight incubation in DMEM with 5% FBS. After 2 hours of incubation with C. trachomatis cells were treated with different concentrations of PEG-2S and subjected to pHi and Na^+i measurement at different time points according to manufacturer's protocols. In all assessments calibration curves were performed prior to the experiments. Fluorescent inverted microscope (TE-2000s Nikon) was used to obtain images and mean intensity was quantified using NIS Elements imaging software (Nikon, Mississauga, ON).

[8] = tested on: HEK293 cells infected with C. trachomatis; assay: Intracellular sodium in HEK293 cells infected with C. trachomatis; type: cell-based, human; conditions: 1 and 2.5 μM (low μM)
Method: as §2

[9] = physchem; type: physicochemical; conditions: organic solvent or mixture
[10] = tested on: Escherichia coli; assay: Growth of free-living bacteria in liquid medium (OD600); conditions: 1.0 to 50 μM
[11] = tested on: C. difficile ATCC 700057; assay: Susceptibility test of Clostridium difficile growth; type: cell-based; conditions: 0.5 μM-50 μM
Method: Evaluation of a PEG-2S against Clostridium difficile (C. difficile ATCC 700057) was performed by Drop method on pre-reduced BAK plates according to Performance Standards for Antimicrobial Susceptibility Testing (Methods for Antimicrobial Susceptibility Testing of Anaerobic Bacteria; Approved Standard—Eighth Edition; Volume 32 Number 5, 2012).

[12] = tested on: Enterococcus faecalis; assay: Growth of free-living bacteria in liquid medium (OD600); conditions: 1.0 to 50 μM
[13] = Chlamydia trachomatis, HeLa, cell culture experimental model, read-out: IC50(Chl), half-maximal inhibition of the proliferation of Chlamydia trachomatis

CCCCCCCc1cc(O)c2ccccc2[n+]1[O-] [HQNO, 2-n-heptyl-4-hydroxyquinoline N-oxide]
pIC50 [1]: 6.89 | pKi ([2]; read-out: Ki for Na+-NQR): 6.52

CCCCCCCC[C@H]1O[C@H]1C/C=C/C=C\[C@H](O)CC(=O)NC1=C[C@](C)(CC)OC1=O [Korormicin, (3R,4Z,6E)-N-[(5S)-5-Ethyl-5-methyl-2-oxo-2,5-dihydro-3-furanyl]-3-hydroxy-8-[(2S,3R)-3-octyl-2-oxiranyl]-4,6-octadienamide]
pKi ([2]; isolated Na+-NQR, listed as korormicin, read-out: inhibitor constant (Ki) of quinone reduction by Na+-NQR): ~10.10 | pKi ([2]; isolated Na+-NQR, read-out: inhibitor constant (Ki) of quinone reduction by Na+-NQR): 10.09 | pKi ([2]; preparations of isolated enzyme, read-out: Ki): ~10.10 | lowering of the cell titer ([3]; VSMC proliferation, 5 to 15 μM): ~10% | toxicity to primary cells (in words) [3]: toxic | efficacy against C. trachomatis infection (in words) [4]: effective | number of inclusions, of control ([4]; 5 consecutive treatments, 15 μM): 4.8% | IC50 ([4]; Chlamydia trachomatis, HeLa, read-out: MIC501, Minimal Inhibitory Concentration after the treatment, first treatment): 8.28 µg/mL | pIC50 ([4]; Chlamydia trachomatis, HeLa, read-out: MIC501, Minimal Inhibitory Concentration after the treatment, first treatment, 50% inhibition of inclusion formation): 4.74 | IC50 ([4]; Chlamydia trachomatis, HeLa, read-out: MIC502, Minimal Inhibitory Concentration after the second treatment, second treatment): 10 µM and 4.6 µg/mL | concentration effective against C. trachomatis ([4]; cell culture models): 10 to 20 µM | number of chlamydial inclusions, of control ([4]; five consecutive treatments, 20 μM): less than 2%

CCCCCCCCCC(=O)CC(=O)N[C@H]1CCOC1=O [N-3-oxo-dodecanoyl-L-Homoserine lactone]
Cytotoxicity on HeLa cell line ([5]; 12.5 μM): yes | Cytotoxicity on HeLa cell line ([5]; 25 μM): yes | Cytotoxicity on HeLa cell line ([5]; 50 μM): yes | Cytotoxicity on HeLa cell line ([5]; 100 μM): yes | toxicity to human cells (in words) ([5]; HeLa): highly toxic

CCCC(=O)N[C@H]1CCOC1=O [N-butyryl-L-Homoserine lactone]
Cytotoxicity on HeLa cell line ([5]; 12.5 μM): no | Cytotoxicity on HeLa cell line ([5]; 25 μM): no | Cytotoxicity on HeLa cell line ([5]; 50 μM): no | Cytotoxicity on HeLa cell line ([5]; 100 μM): no | Anti-Chlamydial effect ([4]; 12.5 μM): no | Anti-Chlamydial effect ([4]; 25 μM): no | Anti-Chlamydial effect ([4]; 50 μM): No | Anti-Chlamydial effect ([4]; 100 μM): no

CCCCCCCCCC(=O)N[C@H]1CCOC1=O [N-decanoyl-L-Homoserine lactone]
Cytotoxicity on HeLa cell line ([5]; 12.5 μM): no | Cytotoxicity on HeLa cell line ([5]; 25 μM): no | Cytotoxicity on HeLa cell line ([5]; 50 μM): no | Cytotoxicity on HeLa cell line ([5]; 100 μM): no | Anti-Chlamydial effect ([4]; 12.5 μM): no | Anti-Chlamydial effect ([4]; 25 μM): no | Anti-Chlamydial effect ([4]; 50 μM): no | Anti-Chlamydial effect ([4]; 100 μM): no

CCCCCC(=O)N[C@H]1CCOC1=O [N-hexanoyl-L-Homoserine lactone]
Cytotoxicity on HeLa cell line ([5]; 12.5 μM): no | Cytotoxicity on HeLa cell line ([5]; 25 μM): no | Cytotoxicity on HeLa cell line ([5]; 50 μM): no | Cytotoxicity on HeLa cell line ([5]; 100 μM): no | Anti-Chlamydial effect ([4]; 12.5 μM): no | Anti-Chlamydial effect ([4]; 25 μM): no | Anti-Chlamydial effect ([4]; 50 μM): No | Anti-Chlamydial effect ([4]; 100 μM): no

CCCCCCC/C=C/C=C\[C@H](O)CC(=O)NC1=C[C@](C)(CC)OC1=O [PEG-2S]
effect on growth [6]: did not affect the growth | pIC50 [1]: 8.75 | internal pH of infected cells ([7]; 1.0 μM, within first 5 hours of infection): ~7.6 | effect on chlamydia-induced acidification ([7]; 2.5 μM): prevented the chlamydia-induced acidification completely | effect on changes of cytoplasmic pH ([7]; 1 and 2.5 μM): prevents changes of cytoplasmic pH | effect on intracellular sodium accumulation / changes of [Na+] [8]: sensitive; also recorded: prevents changes | solubility [9]: < 25 mM | effect on growth [10]: did not affect the growth | effect on growth [11]: does not affect the growth | toxicity to primary cells (in words) [3]: low cytotoxicity | effect on growth [12]: did not affect the growth | pIC50 ([4]; Chlamydia trachomatis, HeLa, read-out: IC50(Chl), half-maximal inhibition of the proliferation of Chlamydia trachomatis, cell culture experimental model): 6.15 | MCC2, Minimal Chlamydicidal Concentration [4]: 0.36 µg/mL | MCC2, Minimal Chlamydicidal Concentration ([4]; inhibition of infection for more than 90%): 1.0 µM | MIC501, Minimal Inhibitory Concentration after the treatment ([4]; first treatment): 0.25 µg/mL (≈ 0.688 µM) | pIC50 ([4]; read-out: MIC502, Minimal Inhibitory Concentration after the second treatment, second treatment): 6.60 | MIC502, Minimal Inhibitory Concentration after the second treatment ([4]; second treatment): 0.09 µg/mL (≈ 0.248 µM)

CC[C@@]1(C)C=C(NC(=O)C[C@@H](O)/C=C\C=C\CCCCCCN(C)C(=O)OC(C)(C)C)C(=O)O1 [PEG-6(Boc)]
solubility [9]: > 50 mM | pIC50 [4, 13]: 6.02

CC[C@@]1(C)C=C(NC(=O)C[C@@H](O)/C=C\I)C(=O)O1 [PEG-10]
solubility [9]: > 50 mM | pIC50 [4, 13]: 6.17

CCCCCCCCCCC[C@H](O)CC(=O)NC1=C[C@](C)(CC)OC1=O [PEG-11]
solubility [9]: > 50 mM | pIC50 [4, 13]: 6.20

CCCCCCC/C=C/C=C\CCC(=O)NC1=C[C@](C)(CC)OC1=O [PEG-14]
solubility [9]: > 50 mM | pIC50 [4, 13]: 5.92

Reference: patent US12029716B2, “Derivatives of korormicin useful as antibiotics” (Viotika Life Sciences Inc., priority 2015, dated 2024)
